What all share (format): cell-based
One test has as its system Molm-13 cells. The experiment in a line: Cell viability assay (CellTiter-Glo), Molm-13 proliferation. To be noted: Homo sapiens, MOLM-13, 72 h, 3 days. The protocol:
(§1) Molm-13 and MV-4-11 cells were cultivated in RPMI-1640 (10% FBS/1% pen-strep) and were plated in white walled 96-well plates at 20,000 cells/well.
(§2) Cells were treated with compound at the indicated concentration or DMSO (control) and the cultures were incubated for 3 days at 37° C. and 5% CO2. Following the incubation period, 100 μL of CellTiterGlow (CTG) reagent (CellTiter-Glo® Luminescent Cell Viability Assay, Promega (Madison, Wis.)) was added to each well. Following a 10 min incubation with shaking, luminescence was measured using a Victor Wallac Luminometer.

Another test deals with MV-4-11 cells. The experiment in a line: Cell viability assay (CellTiter-Glo), MV-4-11 proliferation. To be noted: Homo sapiens, MV4-11, 72 h, 3 days; for inhibition at 1 µM: compound at 1 μM; for inhibition at 10 µM: compound at 10 μM. The protocol: as §1, §2
(In general: Cellular ATP, detected with luciferase, serves as a proxy for viable cell number.)

The test system of a further test is TNFα. The experiment in a line: PBMC assay, LPS-induced TNFα (Meso Scale). The following applies: Homo sapiens, PBMCs, 100 ng/mL LPS 18-24 hrs; for inhibition at 0.1 µM: compound at 0.1 μM; for inhibition at 1 µM: compound at 1 μM; for inhibition at 10 µM: compound at 10 μM. The protocol: FIG. 3 represents the activity against TNFα in peripheral blood mononuclear cells (PBMCs), plated in 96 well plates and pretreated with compound for 1 hour and then induced with 100 ng/mL LPS for 18-24 hrs. Cytokines in the media were measured according to MesoScale protocol. The negative control wells were treated with DMSO. Compound activity is measured as a percentage of LPS-induced activity.
(§3) Frozen primary blood mononuclear cells (PBMCs) were purchased from AllCells. Cells were quick thawed, washed once with RPMI-1640/10% FBS.
(§4) 1% Penicillin/1% Streptomycin and plated in 96 well plates at 200,000 cells per well. Cells were pretreated with DMSO only, or Compound 1 for 1 hour and then induced with 100 ng/mL lipopolysaccharide (LPS) for 18-24 hrs. The supernatant was analyzed for IL-1 beta, IL-6, and TNFα, using Meso Scale assay according to manufacturer's protocol. The negative control wells were treated with DMSO.
(§5) Compound activity was measured as fold difference from the DMSO control. IL-1β activity is shown in FIG. 1; IL-6 activity is shown in FIG. 2; TNFα activity is shown in FIG. 3; and IL-2 activity is shown in FIG. 4. Additional data for compounds (shown as percent inhibition) at 10 μM is shown in Table 1; at 1 μM in Table 2; and at 0.1 μM in Table 3.

The next test has as its system IL-2. Briefly: Anti-CD3-induced IL-2 secretion in PBMCs (Mesoscale). To be noted: Homo sapiens, PBMC, anti-CD3 stimulated PBMCs, 24 hr, vs DMSO control, read-out: IL-2 Fold Change; for fold induction at 0.1 µM: compound at 0.1 μM; for fold induction at 1 µM: compound at 1 μM; for fold induction at 10 µM: compound 10 μM. The protocol: FIG. 4 represents Anti-CD3-induced IL-2 secretion in PBMCs. 1 μg/mL anti-CD3 (OKT-3) antibody in PBS coated onto 96-well plates overnight at 4° C. Approximately, 550,000 PBMCs were added to each well, followed by addition of DMSO only (control) or Compound 1. Induction was measured after 24 hrs as fold difference from the DMSO stimulated control.
as §3
For the IL-2 analysis, 96 well plates were precoated with 1 μg/mL anti-human CD3 antibody (OKT3, eBioscience Inc.). After washing with PBS, Compound 1 was added (50 μL/well) followed by PBMCs diluted at 3-4 million cells/mL (150 μL/well). Plates were incubated for 24 hr and the supernatants collected for Mesoscale IL-2 analysis.
as §5

In another test the test system is IL-1β. Briefly: PBMC assay, LPS-induced IL-1β (Meso Scale). The following applies: Homo sapiens, PBMCs, 100 ng/mL LPS 18-24 hrs; for inhibition at 0.1 µM: compound at 0.1 μM; for inhibition at 1 µM: compound at 1 μM; for inhibition at 10 µM: compound at 10 μM. The procedure:
FIG. 1 represents the activity against IL-1-beta in peripheral blood mononuclear cells (PBMCs), plated in 96 well plates and pretreated with compound for 1 hour and then induced with 100 ng/mL LPS for 18-24 hrs. Cytokines in the media were measured according to MesoScale protocol. Negative control wells were treated with DMSO. Compound activity is measured as a percentage of LPS-induced activity.
as §3, §4, §5

In a further test the test system is IL-6. Briefly: PBMC assay, LPS-induced IL-6 (Meso Scale). The following applies: Homo sapiens, PBMCs, 100 ng/mL LPS 18-24 hrs; for inhibition at 0.1 µM: compound at 0.1 μM; for inhibition at 1 µM: compound at 1 μM; for inhibition at 10 µM: compound at 10 μM. The protocol:
FIG. 2 represents the activity against IL-6 in peripheral blood mononuclear cells (PBMCs), plated in 96 well plates and pretreated with compound for 1 hour and then induced with 100 ng/mL LPS for 18-24 hrs. Cytokines were measured according to MesoScale protocol. Negative control wells were treated with DMSO. Compound activity was measured as a percentage of LPS-induced activity.
as §3, §4, §5

`O=C1CCC[C@H](N2Cc3c(OCc4ccc(CN5CCOCC5)cc4)cccc3C2=O)C(=O)N1` [Compound 1, (S)-3-(4-((4-(morpholinomethyl)benzyl)oxy)-1-oxoisoindolin-2-yl)azepane-2,7-dione]: the inhibition at 0.1 µM in the test on Molm-13 cells (compound at 0.1 μM) came to 30%; in the test on TNFα it was 89%; with IL-1β, 83%; in the test on IL-6, 63%. The inhibition at 1 µM came to 15% in the test with Molm-13 cells (compound at 1 μM); 2% with MV-4-11 cells; 93% with TNFα; 88% in the test on IL-1β; 71% with IL-6. In addition, the values for the inhibition at 10 µM in the test with Molm-13 cells (compound at 10 μM) and in the test with MV-4-11 cells were 37% and 5%, respectively. The fold induction at 0.1 µM in the test on IL-2 was found to be 2.1. Besides, the fold induction at 1 µM in the test on IL-2 was found to be 0.8.
For `O=C1CCC[C@H](N2Cc3c(OCc4ccc(C5CCNCC5)cc4)cccc3C2=O)C(=O)N1` [Compound 4], in the test with MV-4-11 cells, the inhibition at 1 µM was determined as 0% and the inhibition at 10 µM stood at 0%. In the test on TNFα, this molecule yielded an inhibition at 0.1 µM of 81% and an inhibition at 1 µM of 90%. Moreover, in the test with IL-2, the fold induction at 0.1 µM was 1.3 and the fold induction at 1 µM came to 2.3. Also, in the test with IL-1β, 0.1 µM produced 72% inhibition and the inhibition at 1 µM amounted to 86%. In the test with IL-6, this molecule returned an inhibition at 0.1 µM of 43% and an inhibition at 1 µM of 67%.
In the test with MV-4-11 cells, `O=C1CCC[C@H](N2Cc3c(OCc4ccc(CN5CCOCC5)cc4)cc(F)cc3C2=O)C(=O)N1` [Compound 7] yielded an inhibition at 1 µM of 0% and an inhibition at 10 µM of 0%. Also, the inhibition at 0.1 µM with TNFα amounted to 62%. For the same molecule, in the test on IL-2, the fold induction at 0.1 µM stood at 1 and the fold induction at 1 µM is 1.1. The same molecule registered an inhibition at 0.1 µM in the test on IL-1β of 71%. In the test on IL-6, this molecule returned an inhibition at 0.1 µM of 55%.
For the molecule `O=C1CCC[C@H](N2C(=O)c3cccc(OCc4ccc(CN5CCOCC5)cc4)c3C2=O)C(=O)N1` [Compound 11], the inhibition at 1 µM in the test with MV-4-11 cells came out at 0%. Also, the inhibition at 10 µM with MV-4-11 cells is 0%. Further, the inhibition at 0.1 µM with TNFα was determined as 21%; with IL-1β, 21%; with IL-6 it was 12%. For the same molecule, the fold induction at 0.1 µM in the test with IL-2 is 1.2. The fold induction at 1 µM in the test on IL-2 came to 1.9.
Consider `O=C1CCC[C@H](N2Cc3cc(OCc4ccc(CN5CCOCC5)cc4)ccc3C2=O)C(=O)N1` [Compound 15], for which the inhibition at 1 µM stood at 38% in the test with MV-4-11 cells, 65% in the test on TNFα, 59% in the test with IL-1β and 10% in the test on IL-6. The inhibition at 10 µM was determined as 99% in the test with MV-4-11 cells, 87% with TNFα, 81% with IL-1β and 50% in the test on IL-6. Also, in the test with IL-2, the fold induction at 10 µM is 2.1. In addition, the fold induction at 1 µM in the test with IL-2 turned out to be 1.9.
As to `O=C1COC[C@H](N2Cc3c(OCc4ccc(CN5CCOCC5)cc4)cccc3C2=O)C(=O)N1` [Compound 16], the inhibition at 1 µM was found to be 0% with MV-4-11 cells, 27% in the test on TNFα, 24% in the test on IL-1β and 5% in the test on IL-6. Also, the inhibition at 10 µM was 99% in the test with MV-4-11 cells, 75% in the test with TNFα, 52% with IL-1β and 78% in the test on IL-6. In addition, the fold induction at 10 µM with IL-2 stood at 0.2. Further, in the test on IL-2, the fold induction at 1 µM was determined as 0.7.
Regarding `Cc1cnc(Nc2ccc(OCCCNCC(=O)NCc3ccc(COc4cccc5c4CN(C4CCC(=O)NC4=O)C5=O)cc3)cc2)nc1Nc1cccc(S(=O)(=O)NC(C)(C)C)c1` (centres unmarked) [Compound 17], the inhibition at 1 µM with MV-4-11 cells was determined as 31%; in the test on TNFα it was 75%; with IL-1β, 75%; in the test with IL-6, 35%. Moreover, the inhibition at 10 µM in the test on MV-4-11 cells came out at 98%; with TNFα, 100%; with IL-1β, 100%; in the test with IL-6, 100%. In addition, the fold induction at 10 µM in the test on IL-2 turned out to be 0.1. For the same molecule, the fold induction at 1 µM with IL-2 was found to be 1.5.
`N#Cc1ccc2c(c1OCc1ccc(CN3CCOCC3)cc1)CN([C@H]1CCCC(=O)NC1=O)C2=O` [Compound 19, 2-[(S)-2,7-Dioxo-3-azepanyl]-4-{[p-(morpholinomethyl)phenyl]methoxy}-1-oxo-5-isoindolinecarbonitrile]: in the test on MV-4-11 cells, 1 µM produced 0% inhibition and the inhibition at 10 µM is 0%. In the test on TNFα, at 0.1 µM the inhibition was 41% and testing at 1 µM gave an inhibition of 73%. In the test on IL-2, the fold induction at 0.1 µM stood at 1.5 and the fold induction at 1 µM worked out at 2.4. In the test on IL-1β, this molecule came in with an inhibition at 0.1 µM of 22% and an inhibition at 1 µM of 65%. Further, in the test on IL-6, testing at 0.1 µM gave an inhibition of 12% and the inhibition at 1 µM was found to be 43%.
`Cc1cnc(Nc2ccc(OCCCNCC(=O)NCc3ccc(COc4cc(F)cc5c4CN([C@H]4CCCC(=O)NC4=O)C5=O)cc3)cc2)nc1Nc1cccc(S(=O)(=O)NC(C)(C)C)c1` [Compound 21]: the inhibition at 1 µM in the test with MV-4-11 cells came out at 0%; with TNFα, 20%; with IL-1β it was 6%; with IL-6, 8%. The inhibition at 10 µM is 97% in the test on MV-4-11 cells, 30% in the test with TNFα, 11% in the test with IL-1β and 7% with IL-6. The fold induction at 10 µM in the test on IL-2 is 1. The fold induction at 1 µM in the test with IL-2 was found to be 0.9.
For `Cc1cnc(Nc2ccc(OCCCNCC(=O)NCc3ccc(COc4cccc5c4CN([C@H]4CCC(=O)NC4=O)C5=O)cc3)cc2)nc1Nc1cccc(S(=O)(=O)NC(C)(C)C)c1` [Compound 24], the inhibition at 1 µM in the test on MV-4-11 cells is 44%; in the test with TNFα, 10%; with IL-1β, 7%; in the test with IL-6 it was 9%. Also, the inhibition at 10 µM stood at 80% with MV-4-11 cells, 23% in the test on TNFα, 23% in the test with IL-1β and 1% in the test with IL-6. For the same molecule, in the test with IL-2, the fold induction at 10 µM was 1. Further, in the test with IL-2, the fold induction at 1 µM stood at 1.
As to `Cc1cnc(Nc2ccc(OCCCNCC(=O)NCc3ccc(COc4cc(F)cc5c4CN([C@H]4CCC(=O)NC4=O)C5=O)cc3)cc2)nc1Nc1cccc(S(=O)(=O)NC(C)(C)C)c1` [Compound 25], the inhibition at 1 µM in the test on MV-4-11 cells was determined as 54%; in the test on TNFα, 25%; in the test with IL-1β it was 8%; with IL-6, 32%. The same molecule showed an inhibition at 10 µM with MV-4-11 cells of 90%. Besides, the inhibition at 0.1 µM is 13% with TNFα, 0% in the test with IL-1β and 3% in the test with IL-6. For the same molecule, in the test with IL-2, the fold induction at 0.1 µM amounted to 0.9. Also, in the test on IL-2, the fold induction at 1 µM stood at 1.

What is called inhibition is the change of the read-out against control, counted positive when it falls. Higher therefore signals a strong effect.

(Values after US10927104B2, “Ether compounds and uses thereof” (BioTheryX, Inc., priority 2017, dated 2021).)
